In US20170071922A1, “ARTIFICIAL SKIN” (Shiseido Company, Ltd., priority 2010, published 2017):

System: skin model (EFT-400, MatTeK)
Experiment: Electron microscope observation of skin model cultured with MMP inhibitor and/or heparanase inhibitor
Type: cell-based, human
Details: electron micrographs; result in words
Procedure: A skin model (EFT-400, MatTeK) was cultured in a specialized medium (EFT-400-ASY, MatTeK). Dimethylsulfoxide (DMSO) and ethanol were added to the specialized medium to a final concentration of 0.1% to serve as a control group, 50 mM 1-[4-(1H-benzoimidazol-2-yl)-phenyl]-3-[4-(1H-benzoimidazol-2-yl)-phenyl]-urea (DMSO solvent) was added to the specialized medium to a final concentration of 50 μM to serve as a heparanase inhibitor group, 10 mM N-hydroxy-2-[[(4-methoxyphenyl)sulfonyl] (3-picolyl)amino]-3-methylbutanamide hydrochloride (CGS27023A, ethanol solvent) was added to the specialized medium to a final concentration of 10 μM to serve as an MMP inhibitor group, and 50 mM 1-[4-(1H-benzoimidazol-2-yl)-phenyl]-3-[4-(1H-benzoimidazol-2-yl)-phenyl]-urea (DMSO solvent) and 10 mM CGS27023A (ethanol solvent) were added to the specialized medium to a final concentration of 50 μM and 10 μM, respectively, to serve as a heparanase inhibitor+MMP inhibitor group, followed by culturing.
The aforementioned skin model was cut in half after culturing, fixed with Zamboni's fixative and post-fixed with osmic acid, followed by embedding in resin in accordance with established methods. Tissues were observed by preparing ultra-thin sections and staining with uranyl acetate followed by observing with an electron microscope (JEM-1230, JEOL). […]

fibroblasts present in dermis directly beneath basement membrane (FIG. 2) | Structure (SMILES)
normal fibroblasts | COc1ccc(S(=O)(=O)N(Cc2cccnc2)C(C(=O)NO)C(C)C)cc1.Cl (centres unmarked) [Group A, N-hydroxy-2-[[(4-methoxyphenyl)sulfonyl](3-picolyl)amino]-3-methylbutanamide hydrochloride]
normal fibroblasts | O=C(Nc1ccc(-c2nc3ccccc3[nH]2)cc1)Nc1ccc(-c2nc3ccccc3[nH]2)cc1 [Group B, 1-[4-(1H-benzoimidazol-2-yl)-phenyl]-3-[4-(1H-benzoimidazol-2-yl)-phenyl]-urea]
